From patent publication US7265152B2 (ViroPharma Incorporated, priority 2002, dated 2007)

Target: T1, HCV NS5B (Hepatitis C virus genotype 1b, UniProt Q9WMX2)
T1 construct: fusion protein, of which the carboxyl terminal 21 amino acids were removed to enhance its solubility; His tag (GSHHHHHH); made in house; host or cells: E. coli
Assay: Inhibition of viral RNA-dependent RNA polymerase (RdRp), in vitro biochemical assay
Design: species or system HCV genotype 1b virus (BB7)
Settings: HCV NS5B RdRp, BB7 (genotype 1b); reported as class symbols; read-out: HCV pol-BB7 IC50
Text: The HCV NS5B-directed RdRp activity was established and characterized in a standard in vitro biochemical assay using a purified HCV NS5B protein derived from the consensus sequence of a patient infected with HCV genotype 1b virus (BB7). (See Blight K J et al., Science. 2000, 290:1972-4). The NS5B consensus sequence was cloned and expressed in E. coli as a histidine tagged (GSHHHHHH) fusion protein, of which the carboxyl terminal 21 amino acids were removed to enhance its solubility.
In addition to evaluating their activity in the replicon assay, representative compounds within the scope of the present invention, as shown in examples 1-453 of Table 1, were also evaluated for antiviral activity using this assay. A measure of the inhibitory activity of compounds of the invention may be expressed as IC50 values. IC50 values represent the concentration of the compound at which 50% of the RdRp activity is inhibited. […] These low concentrations of test compounds required to achieve 50% inhibition of the RdRp activity indicate that the compounds of the invention are effective at inhibiting RNA synthesis by viral RdRp enzymes.

With CNC(=O)c1c(-c2ccc(F)cc2)oc2cc(N(CC(C)O)S(C)(=O)=O)c(O)cc12 (stereo not drawn) [Example 438, 2-(4-Fluoro-phenyl)-5-hydroxy-6-[(2-hydroxy-propyl)-methanesulfonyl-amino]-benzofuran-3-carboxylic acid methylamide] as the compound, how does the IC50 read?
The IC50 was ≤ 500 nM.

Which IC50 does the source give for CNC(=O)c1c(-c2ccc(F)cc2)oc2cc(N(CC(C)O)S(C)(=O)=O)c(OC)cc12 (stereo not drawn) [Example 439, 2-(4-Fluoro-phenyl)-6-[(2-hydroxy-propyl)-methanesulfonyl-amino]-5-methoxy-benzofuran-3-carboxylic acid methylamide] here?
The IC50 was ≤ 500 nM.

How did the IC50 turn out when CCc1cc2c(C(=O)NC)c(-c3ccc(F)cc3)oc2cc1C1CCCN1C(C)=O (stereo not drawn) [Example 440, 6-(1-Acetyl-pyrrolidin-2-yl)-5-ethyl-2-(4-fluoro-phenyl)-benzofuran-3-carboxylic acid methylamide] was run?
The IC50 was ≤ 500 nM.

For CNC(=O)c1c(-c2ccc(F)cc2)oc2cc(C3CCCN3C(=O)C3CC3)c(OC(C)C)cc12 (stereo not drawn) [Example 448, 6-(1-Cyclopropanecarbonyl-pyrrolidin-2-yl)-2-(4-fluoro-phenyl)-5-isopropoxy-benzofuran-3-carboxylic acid methylamide], which IC50 is on record?
Its IC50 is ≤ 500 nM.

Which IC50 does the source give for CNC(=O)c1c(-c2ccc(F)cc2)oc2cc(-c3nnco3)c(OC)cc12 [Example 449, 2-(4-Fluoro-phenyl)-5-methoxy-6-[1,3,4]oxadiazol-2-yl-benzofuran-3-carboxylic acid methylamide] here?
Its IC50 is ≤ 500 nM.

For CNC(=O)c1c(-c2ccc(F)cc2)oc2cc(N(C)S(C)(=O)=O)c(-c3cccs3)cc12 [Example 450, 2-(4-Fluoro-phenyl)-6-(methanesulfonyl-methyl-amino)-5-thiophen-2-yl-benzofuran-3-carboxylic acid methylamide], which IC50 is on record?
The IC50 was ≤ 500 nM.

With CNC(=O)c1c(-c2ccc(F)cc2)oc2cc(N(CC(O)c3ccc(F)cc3)S(C)(=O)=O)c(O)cc12 (stereo not drawn) [Example 451, 2-(4-Fluoro-phenyl)-6-{[2-(4-fluoro-phenyl)-2-hydroxy-ethyl]-methanesulfonyl-amino}-5-hydroxy-benzofuran-3-carboxylic acid methylamide] as the compound, how does the IC50 read?
The IC50 was ≤ 500 nM.

How did the IC50 turn out when CNC(=O)c1c(-c2ccccc2)oc2ccc(O)cc12 [Example 453, 5-Hydroxy-2-phenyl-benzofuran-3-carboxylic acid methylamide] was run?
The IC50 was 5000 to 30000 nM.

Same assay, conditions: HCV NS5B polymerase, BB7 (genotype 1b); values given as range classes A-D; read-out: HCV pol-BB7 IC50

For CNC(=O)c1c(-c2ccc(F)cc2)oc2cc(-c3c(C)noc3C)c(OCCCN3CCCCC3)cc12 [Example 434, 6-(3,5-Dimethyl-isoxazol-4-yl)-2-(4-fluoro-phenyl)-5-(3-piperidin-1-yl-propoxy)-benzofuran-3-carboxylic acid methylamide], which IC50 is on record?
The IC50 was 500 to 5000 nM.
